Test results from patent publication US20240391862A1, “(1,4,5-TRISUBSTITUTED-1H-PYRAZOL-3-YL)OXY-2-ALKOXY ALKYL ACIDS AND THEIR DERIVATIVES, THEIR SALTS AND THEIR USE AS HERBICIDAL AGENTS” (Bayer AKtiengesellschaft, priority 2021, published 2024).

How the values were obtained:
Assay in all cases: Post-emergence herbicidal effect, greenhouse pot test
AVEFA = type: in vivo, Avena fatua; conditions: visual rating about 3 weeks after treatment
In short: (§1)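 Greenhouse pot test: weeds and crops sown in sandy loam, sprayed post-emergence at one-leaf stage (2–3 weeks after sowing) with WP or EC formulations plus 0.5% additive at 600 l/ha water, rates 20–320 g/ha. Visual rating about 3 weeks later versus untreated controls (100% = dead, 0% = as control).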

POLCO = type: in vivo, Fallopia convolvulus
In short: as §1

VERPE = type: in vivo, Veronica persica
In short: as §1

ECHCG = type: in vivo, Echinochloa crus-galli
In short: as §1

DIGSA = type: in vivo, Digitaria sanguinalis; conditions: 320 g/ha, visual rating about 3 weeks after treatment
In short: as §1

LOLRI = type: in vivo, Lolium rigidum
In short: as §1

ALOMY = type: in vivo, Alopecurus myosuroides; conditions: visual rating about 3 weeks after treatment
In short: as §1

PHBPU = type: in vivo, Ipomoea purpurea
In short: as §1

KCHSC = type: in vivo
In short: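 Visual rating of activity against untreated plants (100% = plants died, 0% = no effect), done about 3 weeks after treatment. Compounds applied at 20–320 g/ha as aqueous spray (600 l/ha, 0.5% additive) from WP or EC formulations onto one-leaf-stage plants grown in sandy loam under greenhouse conditions.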

ABUTH = type: in vivo, Abutilon theophrasti; conditions: visual rating about 3 weeks after treatment
In short: as §1

AMARE = type: in vivo, Amaranthus retroflexus; conditions: visual rating about 3 weeks after treatment
In short: as §1

VIOTR = type: in vivo, Viola tricolor
In short: as §1

MATIN = type: in vivo, Tripleurospermum inodorum
In short: as §1

SETVI = type: in vivo, Setaria viridis
In short: as §1

COC(=O)CCOC(=O)C(OC)Oc1nn(-c2cc(F)ccc2F)c(-c2cncc(F)c2)c1C1CC1 (centres unmarked) [Example I-83]
Post-emergence effect against AVEFA (AVEFA; 80 g/ha): 90%
Post-emergence effect against AVEFA (AVEFA; 320 g/ha): 90%
Post-emergence effect against POLCO in % (POLCO; 80 g/ha): 80%
Post-emergence effect against POLCO in % (POLCO; 320 g/ha): 90%
Post-emergence effect against VERPE in % (VERPE; 20 g/ha): 90%
Post-emergence effect against VERPE in % (VERPE; 80 g/ha): 90%
Post-emergence effect against VERPE in % (VERPE; 320 g/ha): 90%
Post-emergence effect against ECHCG (ECHCG; 20 g/ha, visual rating about 3 weeks after treatment): 90%
Post-emergence effect against ECHCG in % (ECHCG; 80 g/ha): 90%
Post-emergence effect against ECHCG in % (ECHCG; 320 g/ha): 90%
Post-emergence effect against DIGSA (DIGSA): 90%
Post-emergence effect against LOLRI in % (LOLRI; 320 g/ha): 90%
Post-emergence effect against ALOMY (ALOMY; 80 g/ha): 90%
Post-emergence effect against ALOMY (ALOMY; 320 g/ha): 90%
Post-emergence effect against PHBPU in % (PHBPU; 20 g/ha): 90%
Post-emergence effect against PHBPU in % (PHBPU; 80 g/ha): 90%
Post-emergence effect against PHBPU in % (PHBPU; 320 g/ha): 90%
Post-emergence effect against KCHSC in % (KCHSC; 320 g/ha): 80%
Post-emergence effect against ABUTH (ABUTH; 20 g/ha): 80%
Post-emergence effect against ABUTH (ABUTH; 80 g/ha): 90%
Post-emergence effect against ABUTH (ABUTH; 320 g/ha): 90%
Post-emergence effect against AMARE (AMARE; 20 g/ha): 90%
Post-emergence effect against AMARE (AMARE; 80 g/ha): 90%
Post-emergence effect against AMARE (AMARE; 320 g/ha): 90%
Post-emergence effect against VIOTR in % (VIOTR; 20 g/ha): 90%
Post-emergence effect against VIOTR in % (VIOTR; 80 g/ha): 90%
Post-emergence effect against VIOTR in % (VIOTR; 320 g/ha): 90%
Post-emergence effect against MATIN in % (MATIN; 20 g/ha): 80%
Post-emergence effect against MATIN in % (MATIN; 80 g/ha): 90%
Post-emergence effect against MATIN in % (MATIN; 320 g/ha): 90%
Post-emergence effect against SETVI in % (SETVI; 20 g/ha): 90%
Post-emergence effect against SETVI in % (SETVI; 80 g/ha): 90%
Post-emergence effect against SETVI in % (SETVI; 320 g/ha): 90%

COC(=O)C(OC)Oc1nn(-c2ncccc2F)c(-c2cncc(F)c2)c1C1CC1 (centres unmarked) [Example I-73]
pest or weed control at 80 g/ha (AVEFA; Avena fatua, 504 h, 80 g/ha, read-out: Post-emergence effect against AVEFA): 90%
pest or weed control at 320 g/ha (AVEFA; Avena fatua, 504 h, 320 g/ha, read-out: Post-emergence effect against AVEFA): 90%
Post-emergence effect against POLCO in % (POLCO; 20 g/ha): 80%
pest or weed control at 80 g/ha (POLCO; Fallopia convolvulus, 504 h, 80 g/ha, read-out: Post-emergence effect against POLCO in %): 80%
pest or weed control at 320 g/ha (POLCO; Fallopia convolvulus, 504 h, 320 g/ha, read-out: Post-emergence effect against POLCO in %): 90%
pest or weed control at 80 g/ha (VERPE; Veronica persica, 504 h, 80 g/ha, read-out: Post-emergence effect against VERPE in %): 90%
pest or weed control at 320 g/ha (VERPE; Veronica persica, 504 h, 320 g/ha, read-out: Post-emergence effect against VERPE in %): 90%
pest or weed control at 20 g/ha (ECHCG; Echinochloa crus-galli, 504 h, 20 g/ha, visual rating about 3 weeks after treatment, read-out: Post-emergence effect against ECHCG): 90%
pest or weed control at 80 g/ha (ECHCG; Echinochloa crus-galli, 504 h, 80 g/ha, read-out: Post-emergence effect against ECHCG in %): 90%
pest or weed control at 320 g/ha (ECHCG; Echinochloa crus-galli, 504 h, 320 g/ha, read-out: Post-emergence effect against ECHCG in %): 90%
pest or weed control at 320 g/ha (DIGSA; Digitaria sanguinalis, 504 h, read-out: Post-emergence effect against DIGSA): 80%
pest or weed control at 80 g/ha (LOLRI; Lolium rigidum, 504 h, 80 g/ha, read-out: Post-emergence effect against LOLRI in %): 90%
pest or weed control at 320 g/ha (LOLRI; Lolium rigidum, 504 h, 320 g/ha, read-out: Post-emergence effect against LOLRI in %): 90%
pest or weed control at 80 g/ha (ALOMY; Alopecurus myosuroides, 504 h, 80 g/ha, read-out: Post-emergence effect against ALOMY): 80%
pest or weed control at 320 g/ha (ALOMY; Alopecurus myosuroides, 504 h, 320 g/ha, read-out: Post-emergence effect against ALOMY): 90%
pest or weed control at 20 g/ha (PHBPU; Ipomoea purpurea, 504 h, 20 g/ha, read-out: Post-emergence effect against PHBPU in %): 80%
pest or weed control at 80 g/ha (PHBPU; Ipomoea purpurea, 504 h, 80 g/ha, read-out: Post-emergence effect against PHBPU in %): 90%
pest or weed control at 320 g/ha (PHBPU; Ipomoea purpurea, 504 h, 320 g/ha, read-out: Post-emergence effect against PHBPU in %): 90%
Post-emergence effect against KCHSC in % (KCHSC; 20 g/ha): 80%
pest or weed control at 80 g/ha (KCHSC; 504 h, 80 g/ha, read-out: Post-emergence effect against KCHSC in %): 90%
pest or weed control at 320 g/ha (KCHSC; 504 h, 320 g/ha, read-out: Post-emergence effect against KCHSC in %): 90%
Post-emergence effect against ABUTH (ABUTH; 20 g/ha): 80%
pest or weed control at 80 g/ha (ABUTH; Abutilon theophrasti, 504 h, 80 g/ha, read-out: Post-emergence effect against ABUTH): 80%
pest or weed control at 320 g/ha (ABUTH; Abutilon theophrasti, 504 h, 320 g/ha, read-out: Post-emergence effect against ABUTH): 90%
pest or weed control at 20 g/ha (AMARE; Amaranthus retroflexus, 504 h, 20 g/ha, read-out: Post-emergence effect against AMARE): 80%
pest or weed control at 80 g/ha (AMARE; Amaranthus retroflexus, 504 h, 80 g/ha, read-out: Post-emergence effect against AMARE): 90%
pest or weed control at 320 g/ha (AMARE; Amaranthus retroflexus, 504 h, 320 g/ha, read-out: Post-emergence effect against AMARE): 90%
pest or weed control at 20 g/ha (VIOTR; Viola tricolor, 504 h, 20 g/ha, read-out: Post-emergence effect against VIOTR in %): 90%
pest or weed control at 80 g/ha (VIOTR; Viola tricolor, 504 h, 80 g/ha, read-out: Post-emergence effect against VIOTR in %): 90%
pest or weed control at 320 g/ha (VIOTR; Viola tricolor, 504 h, 320 g/ha, read-out: Post-emergence effect against VIOTR in %): 90%
pest or weed control at 80 g/ha (MATIN; Tripleurospermum inodorum, 504 h, 80 g/ha, read-out: Post-emergence effect against MATIN in %): 90%
pest or weed control at 320 g/ha (MATIN; Tripleurospermum inodorum, 504 h, 320 g/ha, read-out: Post-emergence effect against MATIN in %): 90%
Post-emergence effect against SETVI in % (SETVI; 20 g/ha): 80%
pest or weed control at 80 g/ha (SETVI; Setaria viridis, 504 h, 80 g/ha, read-out: Post-emergence effect against SETVI in %): 90%
pest or weed control at 320 g/ha (SETVI; Setaria viridis, 504 h, 320 g/ha, read-out: Post-emergence effect against SETVI in %): 90%
